Laboratory results as given in patent publication US8071645B2, “Systems and methods for treating human inflammatory and proliferative diseases and wounds, with fatty acid metabolism inhibitors and/or glycolytic inhibitors” (The Regents of the University of Colorado, priority 2003, dated 2011).

Columns and labels:
[1] = tested on: L1210 cells; test: DCFDA staining (reactive intermediates) of L1210 cells; type: cell-based; details: 24 hours of incubation, FIG. 12A
Description: Flow Cytometry. Cells were harvested, counted, and resuspended at 10^6 cells/100 μl of PBS containing 2.5% fetal calf serum in preparation for flow cytometric analysis. Cells were stained for intracellular H202 using 6-carboxy-2′,7′-dichlorodihydrofluorescein diacetate (DCF-DA, Molecular Probes, Eugene, Oreg.). Briefly, cells were incubated at 37° with 1 mM DCF-DA for 20 minutes, washed twice in PBS containing 2.5% fetal calf serum and analyzed flow cytometrically. Mitochondrial membrane potential was assessed using Mitotracker Red (CM-H2XROS, Molecular Probes, Eugene, Oreg.). […] The cells were incubated at 37° for 20 minutes, washed twice in PBS containing 2.5% fetal calf serum and analyzed flow cytometrically. Data were acquired on a Coulter Elite Epics or Excel flow cytometer (Coulter, Hialeah, Fla.) and analyzed with CellQuest software, (Becton Dickinson, San Jose, Calif.). […] Each sample population was classified for cell size (forward scatter) and complexity (side scatter), gated on a population of interest and evaluated using 5,000 cells. […]
We measured the effects of etomoxir on metabolism by measuring mitochondrial membrane potential with a fluorescent dye (Mitotracker Red, Molecular Probes, Eugene, Oreg.) which fluoresces as a function of mitochondrial potential. […]

[2] = tested on: HL60 MDR cells; test: % death of HL60 MDR cells by flow cytometry; type: cell-based, human; details: HL60 MDR
Description: Dot plots as a function of live versus dead cells. The cells were cultured at a concentration of 0.5 to 1 million cells per ml. Cells were untreated or treated with etomoxir or 2-deoxy-D-glucose at a concentration of 2.5 mM at the indicated concentrations for either 24 or 48 hours. In additional experiments, under each of these culture conditions, the cells were cultured for 24 hours at which time point, polyclonal anti-UCP-2 was added at a 1:1000 dilution of stock provided by Alpha Diagnostics, San Antonio, Tex. Cells were harvested and analyzed by flow cytometry. Each dot on the dot plots of FIGS. 1, 3, 5, 7, 9, and 11 represents one cell. Five thousand cells were assessed for forward scatter (FS), as a function of cell size, versus side scatter (SS), as a function of cellular granularity. The upper ellipse represents live cells by these criterion and the lower ellipse in each dot plot represents the dead cells.
Statistical Analysis, Percents, and Geometric Mean Values Percents. Gating is a tool provided by Cell Quest software and allows for the analysis of a certain population of cells. Gating around both the live and dead cell populations gave a percent of the cell numbers that was in each population. After the gates were drawn, a percent value of dead cells was calculated by taking the number of dead cells divided by the number of total cells and multiplying by one hundred.
This example illustrates an embodiment of the invention, where multi-drug resistant cancer cells were exposed to compositions of the invention. Analysis of the cells was performed using flow cytometry. The flow cytometry experiments were performed as follows. The cells were harvested, counted, and resuspended as described above. For DNA staining, the cells were washed and resuspended in ice-cold PBS and fixed by the dropwise addition of 95% ethanol. The cells were then incubated for 30 minutes on ice, washed, and resuspended in PBS containing 1% formaldehyde and 0.01% Tween. The cells were incubated with 50 units of DNAse and washed with PBS containing 5% DNAse. The cells were then incubated with anti DNA Fab (166, kind gift of Dr. Susan Wallace, University of Vermont), then washed and stained with a fluorescein conjugated second step anti-mouse immunoglobulin. The cells were then washed and resuspended in PBS/3% BSA/1% formaldehyde. The cells were stained for intracellular H2O2 using 6-carboxy-2′,7′-dichlorodihydrofluorescein diacetate (DCF-DA, Molecular Probes, Eugene, Oreg.). The cells were incubated with 1 mM DCF-DA for 20 minutes, washed twice in PBS containing 5% fetal calf serum and analyzed using flow cytometry. The mitochondrial membrane potential was assessed using MitoTracker Red (CM-H2XROS, Molecular Probes, Eugene, Oreg.). The cells were resuspended in warm (37° C.) PBS containing a final concentration of 0.5 micromolar of dye. The cells were then incubated for 30 minutes, pelleted, and resuspended in prewarmed medium for analysis. The data was acquired on a Coulter Elite Epics or Excel flow cytometer (Coulter, Hialeah, Fla.) and analyzed with CellQuest software, (Becton Dickinson, San Jose, Calif.). […] Each sample population was classified for cell size (forward scatter) and complexity (side scatter), gated on a population of interest and evaluated using 40,000 cells. Each figure describing flow cytometric data represents one of at least four replicate experiments.
All cell lines in this example were cultured in RPMI 1640 culture medium. The medium was supplemented with 5% fetal bovine serum (“FBS”), 2 mM L-Glutamine, 500 units/mL pennicillin/500 micrograms/mL of streptomycin, 10 mM HEPES Buffer, 10^−5 M 2-mercaptoethanol (“2-ME”), 1 mM MEM Sodium Pyruvate, and 0.04 micrograms/mL of Gentamicin (All reagents from Gibco BRL). The cells were maintained at 37° C. in a humidified atmosphere under 5% CO2 in air using standard cell culture techniques known to those of ordinary skill in the art. […]

## CCOC(=O)C1(CCCCCCOc2ccc(Cl)cc2)CO1 (stereo not drawn) [etomoxir, 2-(6-(4-chlorophenoxy)-hexyl)-oxirane-2-carboxylic acid ethyl ester]
[1]
  free radicals (reactive intermediates), DCFDA staining: increase
[2]; 24 hours, 2-deoxy-D-glucose at 2.5 mM, etomoxir as in FIG. 27
  percent of cell deaths: 11%
[2]; 48 hours, concentrations as in FIG. 31
  percent of cell deaths: 14%
